Data from publication PMC8972196, “A Set of Experimentally Validated Decoys for the Human CC Chemokine Receptor 7 (CCR7) Obtained by Virtual Screening” (Frontiers in Pharmacology, 2022).
Where two headings read alike, the source gives them in different places.

Biological target: T1, human CCR7 (Homo sapiens, UniProt P32248)
T1 construct: expressed in transfected cells
T1 sequence (P32248 25-378): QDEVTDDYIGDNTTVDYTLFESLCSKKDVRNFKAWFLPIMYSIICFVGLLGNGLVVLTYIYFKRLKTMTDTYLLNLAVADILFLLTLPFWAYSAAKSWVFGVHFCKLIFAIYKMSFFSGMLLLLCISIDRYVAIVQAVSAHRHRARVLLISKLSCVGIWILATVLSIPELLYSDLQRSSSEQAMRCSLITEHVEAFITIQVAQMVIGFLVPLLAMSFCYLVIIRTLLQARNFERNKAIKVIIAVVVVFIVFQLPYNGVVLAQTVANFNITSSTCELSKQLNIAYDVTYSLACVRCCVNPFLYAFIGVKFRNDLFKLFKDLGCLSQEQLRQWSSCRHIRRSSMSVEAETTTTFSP
Experiment: CCL19-induced calcium mobilization assay, U87.CD4 cells expressing CCR7
Type: cell-based
Details: for IC50: read-out: IC50 [μM] block CCL19 induced calcium signaling
Method in brief: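 Calcium mobilization was recorded in U87.CD4 cells stably carrying human CXCR2 (stimulated with CXCL8), CCR7 (stimulated with CCL19) or CCR5. Cells were plated at 20,000 cells/well, cultured overnight at 37°C in 5% CO2, and incubated 45 min at room temperature in the dark before reading.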

[1] = CCL19 induced calcium signaling
[2] = classification as decoy or active on CCR7
[3] = CCL19-induced calcium signaling
[4] = classification of tested compounds as decoy or active

IC50 [1] [µM]	Decoy – 0 Active – 1 [2]	IC50 [3] [µM]	Decoy – 0 Active – 1 [4]	SMILES
> 50	0	–	–	Cc1ccc(C(=O)N2CCC3(CC2)CCC3(C)O)cc1N1CCCC1=O (stereo not drawn) [C224, Cc1ccc(C(=O)N2CCC3(CC2)CCC3(C)O)cc1N1CCCC1=O]
> 50	0	–	–	O=C(O)CN1C(=O)NC2(CCCc3ccccc32)C1=O (stereo not drawn) [C199, O=C([O-])CN1C(=O)NC2(CCCc3ccccc32)C1=O]
> 50	0	–	–	O=C(O)c1ccc(CNC(=O)C2(c3ccc(Cl)cc3)CCC2)o1 [C185, O=C([O-])c1ccc(CNC(=O)C2(c3ccc(Cl)cc3)CCC2)o1]
–	–	> 10	0	CC1CCCCN1C(=O)CNc1ccc(Cl)c(C(=O)N(C)C)c1 (stereo not drawn) [C073, CC1CCCCN1C(=O)CNc1ccc(Cl)c(C(=O)N(C)C)c1]
> 50	0	–	–	O=C(O)c1nc[nH]c1C(=O)NC(c1ccccc1)c1ccco1 (stereo not drawn) [C190, O=C([O-])c1nc[nH]c1C(=O)NC(c1ccccc1)c1ccco1]
–	–	> 50	0	Cc1cccc([C@H](NC(=O)c2cc(-c3ccccc3F)n[nH]2)C2CC2)n1 [C136, Cc1cccc([C@H](NC(=O)c2cc(-c3ccccc3F)n[nH]2)C2CC2)n1]
> 50	0	–	–	O=C1CC(C(=O)N2CCCC2c2ccccc2)CN1Cc1cccnc1 (stereo not drawn) [C228, O=C1CC(C(=O)N2CCCC2c2ccccc2)CN1Cc1cccnc1]
> 50	0	–	–	COc1ccc(S(=O)(=O)Nc2ccccc2C(=O)N2CCOCC2)cc1C [C260, Cc1cc(ccc1OC)S(=O)(=O)Nc2ccccc2C(=O)N3CCOCC3]
–	–	> 50	0	CCOC(=O)c1c(C)c(CCC(=O)N[C@H](C)c2ccccc2)c(C)n1C [C082, CCOC(=O)c1c(C)c(CCC(=O)N[C@H](C)c2ccccc2)c(C)n1C]
–	–	> 50	0	COc1cccc(-c2cc(C(=O)NCc3ccco3)no2)c1 [C094, COc1cccc(-c2cc(C(=O)NCc3ccco3)no2)c1]
> 50	0	–	–	Cc1nc[nH]c1C(=O)NC1CC(=O)N(Cc2cccc3ccccc23)C1 (stereo not drawn) [C276, Cc1nc[nH]c1C(=O)NC1CC(=O)N(Cc2cccc3ccccc23)C1]
> 50	0	–	–	O=C(NCC1(c2cccc(F)c2)CCCCC1)c1n[nH]c(=O)[nH]1 [C195, O=C(NCC1(c2cccc(F)c2)CCCCC1)c1n[nH]c(=O)[nH]1]
> 50	0	–	–	COc1ccc(C(=O)C2CCCN(Cc3cc4ccccc4[nH]3)C2)c(OC)c1 (stereo not drawn) [C273, COc1ccc(C(=O)C2CCCN(Cc3cc4ccccc4[nH]3)C2)c(OC)c1]
> 50	0	–	–	O=C1CC(NC(=O)N2CCCC2c2ccccc2)CN1c1ccccc1 (stereo not drawn) [C198, O=C1CC(NC(=O)N2CCCC2c2ccccc2)CN1c1ccccc1]
–	–	> 50	0	CN(Cc1ccccc1N[C@H]1CCN(C)C1=O)C(=O)c1cccs1 [C124, CN(Cc1ccccc1N[C@H]1CCN(C)C1=O)C(=O)c1cccs1]
–	–	> 50	0	COc1ccc(CNc2c(NC(C)c3ccccc3)c(=O)c2=O)cc1OC (stereo not drawn) [C014, COc1ccc(CNc2c(NC(C)c3ccccc3)c(=O)c2=O)cc1OC]
–	–	> 50	0	O=c1c(NCC2COc3ccccc3O2)c(N2CCSCC2)c1=O (stereo not drawn) [C003, O=c1c(NCC2COc3ccccc3O2)c(N2CCSCC2)c1=O]
> 50	0	–	–	CC1CC(C)CN(C(=O)c2ccccc2NS(=O)(=O)c2ccc3[nH]c(=O)[nH]c3c2)C1 (stereo not drawn) [C257, CC1CC(CN(C1)C(=O)c2ccccc2NS(=O)(=O)c3ccc4c(c3)[nH]c(=O)[nH]4)C]
> 50	0	–	–	Cc1nccn1-c1ccccc1CNC(=O)CC1NC(=O)c2ccccc21 (stereo not drawn) [C223, Cc1nccn1-c1ccccc1CNC(=O)CC1NC(=O)c2ccccc21]

The next lines start with the compound.

SMILES	IC50 [1] [µM]	Decoy – 0 Active – 1 [2]	IC50 [3] [µM]	Decoy – 0 Active – 1 [4]
CC1(C)Cc2nc(C(C)(C)C)ncc2C(NC(=O)c2cc(C(F)(F)F)n[nH]2)C1 (stereo not drawn) [C177, CC1(C)Cc2nc(C(C)(C)C)ncc2C(NC(=O)c2cc(C(F)(F)F)n[nH]2)C1]	> 50	0	–	–
O=c1c(Nc2cc(C(F)(F)F)cc(C(F)(F)F)c2)c(Nc2cc(C(F)(F)F)cc(C(F)(F)F)c2)c1=O [C018, O=C1C(NC2=CC(C(F)(F)F)=CC(C(F)(F)F)=C2)=C(NC3=CC(C(F)(F)F)=CC(C(F)(F)F)=C3)C1=O]	–	–	> 50	0
FC(F)(F)c1cccc(NC(=S)NCc2ccccc2C(F)(F)F)c1 [C036, FC(F)(F)c1cccc(NC(=S)NCc2ccccc2C(F)(F)F)c1]	–	–	> 30	0
O=C(COc1ccccc1O)NCc1ccccc1Cl [C174, O=C(COc1ccccc1O)NCc1ccccc1Cl]	> 50	0	–	–
CC(C)C(CO)NC(=O)NC(c1cccc(F)c1F)C(F)(F)F (stereo not drawn) [C191, CC(C)C(CO)NC(=O)NC(c1cccc(F)c1F)C(F)(F)F]	> 50	0	–	–
COc1cccc(C2CC(O)CN2Cc2nc3ccccc3[nH]2)c1 (stereo not drawn) [C279, COc1cccc(C2CC(O)CN2Cc2nc3ccccc3[nH]2)c1]	> 50	0	–	–
Cc1ccccc1NC(=O)c1c(O)nc2ccccc2c1O [C170, Cc1ccccc1NC(=O)c1c(O)nc2ccccc2c1O]	> 50	0	–	–
CCNC(=O)c1ccc(CNS(=O)(=O)c2ccc3c(c2)CCC3)cc1 [C261, CCNC(=O)c1ccc(cc1)CNS(=O)(=O)c2ccc3c(c2)CCC3]	> 50	0	–	–
Cc1cccc(N[C@H]2CS(=O)(=O)C[C@H]2OC(=O)c2ccccc2)c1 [C121, Cc1cccc(N[C@H]2CS(=O)(=O)C[C@H]2OC(=O)c2ccccc2)c1]	–	–	> 50	0
COc1ccc(CC(C)(O)CNC(=O)NCc2cccc3ccccc23)cc1 (stereo not drawn) [C192, COc1ccc(CC(C)(O)CNC(=O)NCc2cccc3ccccc23)cc1]	> 50	0	–	–
Cc1ccc(N=C(N)C(N)=Nc2ccc(C)cc2)cc1 [C065, Cc1ccc([NH+]=C(N)C(N)=[NH+]c2ccc(C)cc2)cc1]	–	–	> 10	0
Cc1ccc(NC=C2C(=O)CC(c3ccco3)CC2=O)cc1 (stereo not drawn) [C071, Cc1ccc(NC=C2C(=O)CC(c3ccco3)CC2=O)cc1]	–	–	> 10	0
CCOC(=O)[C@H](NCC(=O)Nc1cccc(C(=O)N(C)C)c1)C(C)C [C125, CCOC(=O)[C@H]([NH2+]CC(=O)Nc1cccc(C(=O)N(C)C)c1)C(C)C]	–	–	> 50	0
CN(Cc1ccccc1Cl)C(C(=O)O)c1ccc(F)c(CO)c1 (stereo not drawn) [C171, C[NH+](Cc1ccccc1Cl)C(C(=O)[O-])c1ccc(F)c(CO)c1]	> 50	0	–	–
O=C(c1ccnc(N[C@H]2CCCN(Cc3cccnc3)C2)c1)N1CCCC1 [C087, O=C(c1ccnc(N[C@H]2CCC[N@@H+](Cc3cccnc3)C2)c1)N1CCCC1]	–	–	> 50	0
CCN(Cc1ccc(Cl)cc1)Cc1cc(=O)c2cccc(F)c2[nH]1 [C278, CCN(Cc1ccc(Cl)cc1)Cc1cc(=O)c2cccc(F)c2[nH]1]	> 50	0	–	–
CCOC(=O)NC(=S)Nc1ccc2nsnc2c1 [C044, S=C(NC1=CC2=NSN=C2C=C1)NC(OCC)=O]	–	–	> 30	0
